According to ChEMBL document CHEMBL3797097 (J Med Chem, 2016):

How the values were obtained:
D(2) dopamine receptor [1] = biological target: T1, D(2) dopamine receptor (Homo sapiens, UniProt P14416); test: biochemical; assay type: cell-based, HEK293
D(3) dopamine receptor [2] = biological target: T2, D(3) dopamine receptor (Homo sapiens, UniProt P35462); test: Displacement of [3H]7-OH-DPAT from human D3 receptor transfected in HEK293 cells measured after 60 mins by liquid scintillation counter; assay type: cell-based
D(2) dopamine receptor [3] = biological target: T1, D(2) dopamine receptor; test: Agonist activity at human D2 receptor transfected in HEK293T cells by BRET based G0 activation assay; assay type: cell-based, HEK-293T
D(3) dopamine receptor [4] = biological target: T2, D(3) dopamine receptor; test: Agonist activity at human D3 receptor transfected in HEK293T cells by BRET based G0 activation assay; assay type: cell-based, HEK-293T
D(2) dopamine receptor [5] = biological target: T1, D(2) dopamine receptor; test: biochemical; assay type: cell-based, HEK293; remark: listed apart in the source
D(3) dopamine receptor [6] = biological target: T2, D(3) dopamine receptor; test: Displacement of [3H]N-methylspiperone from human D3 receptor transfected in HEK293 cells measured after 60 mins by liquid scintillation counter; assay type: cell-based
Homo sapiens [7] = species: Homo sapiens; test: Selectivity index, ratio Ki for human D3 receptor to Ki for human D2 receptor using [3H]N-methylspiperone displacement assay
Homo sapiens [8] = species: Homo sapiens; test: Selectivity index, ratio Ki for human D3 receptor to Ki for human D2 receptor using [3H]7-OH-DPAT displacement assay
D(2) dopamine receptor [9] = biological target: T1, D(2) dopamine receptor; test: Agonist activity at recombinant human D2 receptor expressing in CHOp cells assessed as receptor mediated stimulation of mitogenesis measured as [3H]thymidine incorporation after 24 hrs by scintillation spectrometry; assay type: cell-based
D(3) dopamine receptor [10] = biological target: T2, D(3) dopamine receptor; test: Agonist activity at recombinant human D3 receptor expressing in CHOp cells assessed as receptor mediated stimulation of mitogenesis measured as [3H]thymidine incorporation after 24 hrs by scintillation spectrometry; assay type: cell-based

T1 sequence (P14416 whole entry): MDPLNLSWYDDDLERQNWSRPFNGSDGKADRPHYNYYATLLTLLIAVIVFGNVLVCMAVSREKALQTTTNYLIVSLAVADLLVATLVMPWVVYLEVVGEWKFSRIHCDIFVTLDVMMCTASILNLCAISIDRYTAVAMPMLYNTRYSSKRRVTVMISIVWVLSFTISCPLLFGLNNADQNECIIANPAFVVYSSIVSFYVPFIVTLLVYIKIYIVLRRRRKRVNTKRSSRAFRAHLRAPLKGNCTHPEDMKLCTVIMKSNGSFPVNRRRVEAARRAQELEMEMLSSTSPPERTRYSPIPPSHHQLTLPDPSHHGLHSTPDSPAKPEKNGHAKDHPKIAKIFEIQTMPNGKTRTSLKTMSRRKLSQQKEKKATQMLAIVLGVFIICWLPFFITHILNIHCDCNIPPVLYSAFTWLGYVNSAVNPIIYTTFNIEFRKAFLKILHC
T2 sequence (P35462 whole entry): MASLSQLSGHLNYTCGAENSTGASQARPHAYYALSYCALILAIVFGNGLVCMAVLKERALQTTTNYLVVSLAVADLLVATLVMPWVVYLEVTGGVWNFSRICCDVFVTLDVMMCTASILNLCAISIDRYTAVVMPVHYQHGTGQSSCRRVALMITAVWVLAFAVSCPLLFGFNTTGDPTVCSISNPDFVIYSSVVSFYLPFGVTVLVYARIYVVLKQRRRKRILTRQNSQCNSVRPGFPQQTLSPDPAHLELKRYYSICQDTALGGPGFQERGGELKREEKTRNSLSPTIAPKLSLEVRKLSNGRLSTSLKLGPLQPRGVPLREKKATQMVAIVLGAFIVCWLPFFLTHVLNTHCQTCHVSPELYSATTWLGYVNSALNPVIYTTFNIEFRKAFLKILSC

SMILES | Ki (D(2) dopamine receptor [1]) | Ki (D(3) dopamine receptor [2]) | EC50 (D(2) dopamine receptor [3]) | EC50 (D(3) dopamine receptor [4]) | Ki (D(2) dopamine receptor [5]) | Ki (D(3) dopamine receptor [6]) | Ratio Ki (Homo sapiens [7]) | Ratio Ki (Homo sapiens [8]) | EC50 (D(2) dopamine receptor [9]) | EC50 (D(3) dopamine receptor [10])
CCCN(CCC)[C@@H]1Cc2cccc3[nH]c(=O)n(c23)C1 | 11.4 nM | 27.1 nM | 2.53 nM | 21.8 nM |  |  |  |  |  | 
CCCN(C)[C@@H]1Cc2cccc3[nH]c(=O)n(c23)C1 | 12.5 nM | 104 nM | 29 nM | 30.7 nM | 1180 nM | 290 nM | 0.25 | 8.3 | 18.1 nM | 148 nM
CN(CCCCNC(=O)c1cc2ccccc2[nH]1)[C@@H]1Cc2cccc3[nH]c(=O)n(c23)C1 |  | 76.9 nM |  | 94.3 nM |  | 337 nM |  |  |  | 53 nM
CCCN[C@@H]1Cc2cccc3c2n(c(=O)n3CCC)C1 | 8.08 nM | 21.7 nM | 68 nM | 1420 nM | 868 nM | 47.9 nM | 0.06 | 2.7 | 13 nM | 56.1 nM
CCCn1c(=O)n2c3c(cccc31)C[C@@H](NC)C2 | 13.2 nM | 99.5 nM | 38.7 nM | 53.7 nM | 751 nM | 187 nM | 0.25 | 7.5 | 549 nM | 178 nM
CCCN[C@@H]1Cc2cccc3nc(O)n(c23)C1 |  | 25.5 nM |  | 18.3 nM |  | 410 nM |  |  |  | 0.81 nM
CN[C@@H]1Cc2cc(C#N)cc3[nH]c(=O)n(c23)C1 | 5120 nM |  |  |  |  | 27200 nM |  |  |  | 
N[C@@H]1Cc2cccc3[nH]c(=O)n(c23)C1 | 114 nM | 3390 nM | 697 nM | 1890 nM | 12100 nM | 11800 nM | 0.98 | 30 | 684 nM | 3400 nM
CCCN(CCC)[C@@H]1Cc2cccc3nc(O)n(c23)C1 |  |  |  |  |  |  |  | 2.4 |  | 
CN(CCCCNC(=O)c1ccc2c(c1)Cc1ccccc1-2)[C@@H]1Cc2cccc3[nH]c(=O)n(c23)C1 | 5.47 nM | 12.5 nM | 109 nM | 125 nM | 3700 nM | 1090 nM | 0.29 | 2.3 | 102 nM | 11.9 nM
CCCCn1c(=O)n2c3c(cccc31)C[C@@H](NC)C2 | 12.8 nM | 142 nM | 30.5 nM | 25.6 nM | 361 nM | 10.3 nM | 0.03 | 11 | 83 nM | 22 nM
CN[C@@H]1Cc2cccc3[nH]c(=O)n(c23)C1 [SUMANIROLE] |  | 546 nM |  | 186 nM |  | 6330 nM |  |  |  | 669 nM
CCCN(CCC)[C@@H]1Cc2cccc3c2n(c(=O)n3CCC)C1 | 2.59 nM | 3.39 nM | 33.9 nM | 51.9 nM | 146 nM | 6.05 nM | 0.04 | 1.3 | 13.7 nM | 3.7 nM
